Source: patent US20220265817A1, “THERAPEUTIC COMPOSITIONS AND METHODS FOR TREATING HEPATITIS B” (priority 2017, published 2022)

Test system: HBV cccDNA-dependent precore RNA in DESHAe82 cells
Assay: DESHAe82 / DE19 cell culture system, cccDNA-derived precore RNA by qRT-PCR, MacSynergy II
Type: cell-based, Hepatitis B virus
Conditions: ETV μM: 0.01, 0.0032, 0.001, 0.0003, 0.0001, 3E−05, 0
Method: In vitro combination studies were conducted using a modification of the assay system described in Cai et al (Antimicrobial Agents Chemotherapy, 2012. Vol 56(8):4277-88). A previously developed HepDE19 cell culture system (Guo et al. J. Virology (2007) 81(22): 12472-12484) supports HBV DNA replication and cccDNA formation in a tetracycline (Tet)-regulated manner, and produces a detectable reporter molecule which is dependent upon the production and maintenance of cccDNA.
In the HepDE19 cell culture system, the reporters are the precore RNA and its cognate protein product, the secreted HBV “e antigen” (HBeAg). In HepDE19 cells, precore RNA and HBeAg are only produced from the cccDNA circular template, because the ORF of HBeAg and its 5′ RNA leader are separated between the opposite ends of the integrated viral genome, and only become contiguous with the formation of cccDNA. Although an assay based on the HepDE19 cell culture system is effective for determining activity, the results of high throughput screening may be complicated because the HBeAg ELISA cross reacts with a viral HBeAg homologue, which is the core antigen (HBcAg) expressed largely in a cccDNA-independent fashion in HepDE19 cells. To overcome this complication, an alternative cell culture system (designated herein as DESHAe82 cell culture system and described in PCT/EP/2015/06838) has been developed which includes an in-frame HA epitope tag in the N-terminal coding sequence of HBeAg in the transgene of DESHAe82 cells, without disrupting any cis-element critical for HBV replication, cccDNA transcription, and HBeAg secretion.
A chemiluminescence ELISA assay (CLIA) for the detection of HA-tagged HBeAg with HA antibody serving as capture antibody and […] has been developed, eliminating the contaminating signal from HBcAg. […] In addition, a protocol for quantitative reverse transcription and polymerase chain reaction (qRT-PCR) that is specific for detection of precore RNA in either DE19 or DESHAe82 cells was developed and is also used for the detection of the cccDNA-dependent mRNA (precore RNA) that is translated to produce HBeAg or HA-HBeAg.
To test the compound combinations, DESHAe82 or DE19 cells (as indicated in examples) were plated in 96 well tissue-culture treated microtiter plates in DMEM/F12 medium supplemented with 10% fetal bovine serum+1% penicillin-streptomycin with Tet, and incubated in a humidified incubator at 37° C. and 5% CO2 overnight. […] The two inhibitors were tested both singly as well as in combinations in a checkerboard fashion such that each test concentration of inhibitor A was combined with each test concentration of inhibitor B to determine their combination effects on inhibition of cccDNA formation and expression. Untreated negative control samples (0.5% DMSO or media only) were included on each plate in multiple wells. Following a 9 day-incubation, media was removed and cells were subjected to RNA extraction to measure the cccDNA-dependent precore mRNA level. Total cellular RNAs were extracted using a 96-well format total RNA isolation kit ([…]-NAGEL, Cat. 740466.4) by following the instruction of manufacturer (vacuum manifold processing, two more extra washes of Buffer RA4). RNA samples were eluted in RNAase-free water. Quantitative real-time RT-PCR was performed with a Roche LightCycler480 and RNA Master Hydrolysis probe (Catalog number 04991885001, Roche) using primers and conditions for specific detection of cccDNA-dependent precore RNA. GAPDH mRNA levels were also detected by standard methods and used to normalize the precore RNA levels.

CC[C@@H](C)NS(=O)(=O)c1ccc(F)c(C(=O)Nc2ccc(F)c(F)c2)c1 [Compound 3]
Average percent inhibition versus negative control (precore RNA) (Compound 3 0.032 μM): −26.280%
Average percent inhibition versus negative control (precore RNA) (Compound 3 0.100 μM): −86.920%
Average percent inhibition versus negative control (precore RNA) (Compound 3 0.317 μM): 36.240%
Average percent inhibition versus negative control (precore RNA) (Compound 3 1.001 μM): 67.120%
Average percent inhibition versus negative control (precore RNA) (Compound 3 3.165 μM): 90.600%
Average percent inhibition versus negative control (precore RNA) (Compound 3 10 μM): 84.340%
